From patent US12453708B2, “Aminonaphthoquinone compounds for treatment and/or prevention of fibrosis diseases” (CALGENT BIOTECHNOLOGY CO., LTD., priority 2015, dated 2025)

Tests used:
[1] = test system: TGF-β-induced fibronectin expression in WI-38 cells; assay: TGF-β-induced fibronectin expression in WI-38 cells (Western blot, immunofluorescence); assay type: cell-based, human; settings: WI-38 lung fibroblasts, 0.3, 1, 3 or 10 μM for 30 min before and during incubation with TGF-β (10 ng/mL)
Procedure: (§1) FIGS. 6 (A), (B) and (C) show the effect of L056 on TGF-β-induced fibronectin expression in WI-38 cells. WI-38 lung fibroblasts were incubated with different concentrations of L056 (0.3, 1, 3 or 10 μM) for 30 min before and during incubation for 2 h with TGF-β (10 ng/mL). […] (A), Western blot plot; (B), Quantitative assay of Western blot; (C), Immunofluorescence plot. WI-38 cells, a normal human embryonic lung fibroblast cell line, were obtained from American Type Culture Collection (Manassas, VA). Cells were grown in MEM nutrient mixture, containing 10% FCS, 2 mM L-glutamine, 0.1 mM NEAA, 1 mM sodium pyruvate, 50 U/ml penicillin G, and 100 µg/ml streptomycin, in a humidified 37° C. incubator with 5% CO2 Cells were used between passages 18 and 30 for all experiments. After reaching confluence, cells were seeded onto 6-cm dishes for immunoblotting. Western blot analyses were performed as described previously (Chen B C, Chang Y S, Kang J C, Hsu M J, Sheu J R, Chen T L, et al. Peptidoglycan induces nuclear factor-kappaB activation and cyclooxygenase-2 expression via Ras, Raf-1, and ERK in RAW 264.7 macrophages. J Biol Chem 2004; 279:20889-97). […] The immunoreactivity was detected using enhanced chemiluminescence (ECL) following the manufacturer's instructions. Quantitative data were obtained using a computing densitometer with scientific imaging systems (Kodak, Rochester, NY). […]

[2] = test system: BLM-induced lung fibrosis in mice; assay: Bleomycin (BLM)-induced lung fibrosis mice model; assay type: in vivo, C57BL/6JNarl mice; settings: for fibrosis score, Mean ± SEM: H&E histology day 39
Procedure: FIGS. 8 (A) and (B) show the effect of L056 effect on fibrosis score of BLM-induced lung fibrosis in mice. C57BL/6 mice (8 weeks) were treated with bleomycin (BLM, 0.05 U/50 μl) or PBS (50 μl) by endotracheal administration. […] On day 39, the mice were sacrificed and, the histologic analysis of lung tissue was performed by hematoxylin-eosin (H&E) staining (original magnification, x100). […] (A), Histology fibrosis score plot; (B), H&E staining plot.
FIG. 9 (A) to (D) show the inhibitory effects on pro-fibrogenic mediators, collagen, CTGF, fibronectin and […], respectively. (A), H&E staining plot for collagen; (B), H&E staining plot for CTGF; (C), H&E staining plot for fibronectin; (D), H&E staining plot for α-SMA.
C57BL/6JNarl mice (8 weeks) were treated with bleomycin (BLM, 0.05 U/50 μl) or PBS (50 μl) by endotracheal administration. […] On day 39, the mice were sacrificed, and the histologic analysis of lung tissue was performed by hematoxylin-eosin (H&E) staining (original magnification, x100).

[3] = test system: thrombin-induced CTGF expression in WI-38 cells; assay: thrombin-induced CTGF expression in WI-38 cells (Western blot); assay type: cell-based, human; settings: WI-38 lung fibroblasts, 0.3, 1, 3 or 10 μM for 30 min before and during 2 h thrombin (1 U/ml)
Procedure: as §1, with “3 (A) and” for “6 (A),”, “(B)” for “(B) and (C)”, “thrombin-induced CTGF” for “TGF-β-induced fibronectin”, “thrombin (1 U/ml).” for “TGF-β (10 ng/mL).”, “blot.” for “blot; (C), Immunofluorescence plot.”

[4] = BLM mice, 25 mg (mg/kg/day, q.d., oral, days 10 to 38)
[5] = BLM mice, 50 mg (mg/kg/day, q.d., oral, days 10 to 38)
[6] = BLM mice, 100 mg (mg/kg/day, q.d., oral, days 10 to 38)

Q: For O=C(Nc1ccncc1)c1ccc(CNC2=C(Cl)C(=O)c3ccccc3C2=O)cc1 [Example L056, 4-(((3-chloro-1,4-dioxo-1,4-dihydronaphthalen-2-yl)amino)methyl)-N-(pyridin-4-yl)benzamide], which TGF-β-induced fibronectin expression [1] is on record?
A: The TGF-β-induced fibronectin expression was “significantly inhibited”.

Q: And the “Efficacy % (reduction of fibrosis score)” value [2, 4]?
A: The value was 50.94%.

Q: And the “fibrosis score, Mean ± SEM” value [2, 4]?
A: Its value is 3.27 ± 0.03.

Q: And the “Efficacy % (reduction of fibrosis score)” value [2, 5]?
A: The value was 83.90%.

Q: What about the “fibrosis score, Mean ± SEM” value [2, 5] of the same compound?
A: Its value is 2.03 ± 0.21.

Q: What about the “Efficacy % (reduction of fibrosis score)” value [2, 6] of the same compound?
A: Its value is 67.38%.

Q: And the “fibrosis score, Mean ± SEM” value [2, 6]?
A: Its value is 2.65 ± 0.17.

Q: And the “efficacy in the inhibition compared with PBS control” value ([2]; BLM mice, FIG. 8(B))?
A: Its value is “significantly higher than the PBS control”.

Q: What about the “pro-fibrogenic mediators expression (collagen, CTGF, fibronectin, α-SMA) in lung” value ([2]; bleomycin-induced mice lung fibrosis model, FIG. 9) of the same compound?
A: Its value is “inhibited”.

Q: And the “inhibition of BLM-induced lung fibrosis (in words)” value ([2]; mice, 25, 50, 100 mg/kg/day oral, FIG. 8(A))?
A: Its value is “inhibits BLM-induced lung fibrosis in a dose-dependent manner”.

Q: And the “thrombin-induced CTGF production/expression” value [3]?
A: The value was “significantly inhibited”.

Q: And the “thrombin-induced CTGF production/expression” value ([3]; listed as MPTOL0560)?
A: Its value is “inhibited”.
